Laboratory results published in US12358904B2, “Inhibitors of TYK2” (Atomwise Inc., priority 2023, dated 2025).

Experiments:
[1] = target: T1, TYK2-JH2 (Homo sapiens, UniProt P29597); experiment: TYK2-JH2 HTRF binding assay (ligand efficiency); details: calculated from IC50 of the TYK-JH2 binding assay (Equation 1)
T1 construct: TYK JH2 enzyme mix (ChemPartnec CP20210818A-BV); purchased ChemPartner CP20210818A-BV
Method: The following example describes the TYK2-JH2 HTRF binding assay used to determine the ligand efficiency of the TYK2 inhibitors.
To calculate ligand efficiency, Equation 1 is applied:
[formula] in which IC50 comes from the binding assay used to determine compound potency.
TYK JH2 enzyme mix (ChemPartnec CP20210818A-BV), tracer (ChemPartnec CP-0029472-051) and mAb Anti-6HIS Tb cryptate Gold (Cisbio: Cat No. 61H12TLA) mix were prepared in assay buffer (10 mM MgCl2, 20 mM HEPES pH 7.5, 0.01% Triton X-100, 1 mM DTT). Compounds diluted in DMSO (Final Concentrations 0.1 to 0.000005 [μM]) and enzyme mix (0.5 nM Final Concentration) were added to 384 well plates, briefly centrifuged and incubated at room temperature for 10 minutes. After incubation, tracer mix (Tracer-35 nM final concentration); (Mab Anti-6HIS Tb cryptate Gold-0.5× final)) was added, briefly centrifuged then incubate at room temperature 60 minutes. After incubation, plates were read by Envision TR-FRET (Ex340/Em495/520) protocol (PerkinElmer-Envision 2104 multilabel plate reader).

[2] = test system: IL-12/pSTAT4; experiment: IL-12 induced pSTAT4 assay in NK-92 cells; type: cell-based; details: Homo sapiens, NK92, IL-12 stimulation, read-out: Cellular potency (IL-12/pSTAT4)
Method: The following example describes the IL-12 induced pSTAT4 assay used to determine the cellular potency (IL-12/pSTAT4) of the TYK2 inhibitors.
NK-92 cells (human natural killer lymphoma cell line) were cultured in MEM α, nucleosides (Life Technologies, 22571020) 12.5% heat inactivated FBS (Dominique Dutscher, S1810), 12.5% heat inactivated Horse serum (Life Technologies, 26050088) and 1% Penicillin-Streptomycin (Life Technologies, 15140122), 5 ng/mL human IL-2 (R&D systems, 202-II/CF), 0.2 mM inositol (Sigma, PHR1351 lot LRAC4118), 0.1 mM β-mercaptoethanol (Life Technologies, 31350010), and 0.02 mM folic acid (Sigma, F8758).
NK-92 cells were starved overnight in starvation medium (Opti-MEM (ThermoFisher, 11058-021), 10% charcoal stripped FBS (ThermoFisher 12676-029), and 1% Penicillin (100U/ml)-Streptomycin (100 μg/ml) (ThermoFisher, ref 15140122)), then plated in a 96-well tissue culture plate (20K cells/well) prior to pre-incubation with test compounds (Final Concentration [nM] 1000 to 0.05) for 30 minutes at 37° C. Cells were stimulated with IL-12 (Final Concentration l0 ng/ml) for 30 minutes at 37° C., and terminated by addition of lysis buffer (MSD K150PAD-2). pSTAT4 (Tyr693) was detected using the Mesa Scale Discovery platform (MSD K150PAD-2), according to manufacturer's instruction. Briefly, cell lysates were added to pre-blocked plates and incubated for 1 hour at room temperature. Plates were washed and incubated with detection antibody for 1 hour at room temperature. Plates were washed and Read Buffer was added prior to measurement on the MSD (1300 MSD Quickplex SQ 120).

T1 sequence (P29597 589-875 limits assumed): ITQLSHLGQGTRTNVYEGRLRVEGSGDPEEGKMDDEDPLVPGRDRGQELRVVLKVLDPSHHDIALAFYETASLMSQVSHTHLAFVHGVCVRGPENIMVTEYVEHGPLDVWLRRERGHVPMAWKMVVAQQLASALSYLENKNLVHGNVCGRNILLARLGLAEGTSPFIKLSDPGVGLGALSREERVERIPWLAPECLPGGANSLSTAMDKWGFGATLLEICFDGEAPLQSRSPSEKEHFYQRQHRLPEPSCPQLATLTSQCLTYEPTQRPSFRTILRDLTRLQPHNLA

SMILES	Ligand Efficiency [1]	IC50 [2] [µM]
CC1(CNc2ccc(Nc3cc(Nc4ncccc4S(C)(=O)=O)ncn3)nc2)COC1 [Compound 36, N^4-(5-(((3-methyloxetan-3-yl)methyl)amino)123yridine-2-yl)-N^6-(3-(methylsulfonyl)123yridine-2-yl)pyrimidine-4,6-diamine]	††† (†††: >0.39)	< 0.1
Cn1ccc(Nc2cc(Nc3ccccc3C(N)=O)ncn2)n1 [Compound 67, 2-((6-((1-methyl-1H-pyrazol-3-yl)amino)pyrimidin-4-yl)amino)benzamide]	††† (†††: >0.39)	> 1
Cc1cccc(Nc2cc(Nc3cccnc3S(C)(=O)=O)ncn2)n1 [Compound 59, N^4-(6-methylpyridin-2-yl)-N^6-(2-(methylsulfonyl)149yridine-3-yl) pyrimidine-4,6-diamine]	††† (†††: >0.39)	> 1
CS(=O)(=O)c1ccccc1Nc1cc(Nc2ccc(C(=O)NC3CCOC3)cn2)ncn1 (centres unmarked) [Compound 43, 6-(6-(2-(methylsulfonyl)phenylamino)pyrimidin-4-ylamino)-N-(tetrahydrofuran-3-yl)nicotinamide]	†† (††: 0.37-0.39)	> 1
COc1cc(Nc2cc(Nc3ncccc3S(C)(=O)=O)ncn2)ncc1NC1(C)COC1 [Compound 62]	†† (††: 0.37-0.39)	> 1
CS(=O)(=O)c1cccnc1Nc1cc(Nc2ccc(C(=O)NC3CC(F)(F)C3)cn2)ncn1 [Compound 38, N-(3,3-difluorocyclobutyl)-6-(6-(3-(methylsulfonyl)pyridine-2-ylamino)pyrimidin-4-ylamino)nicotinamide]	††† (†††: >0.39)	< 0.1
CS(=O)(=O)c1ccccc1Nc1cc(Nc2ccc(C3(NC4COC4)CC3)cn2)ncn1 [Compound 41, N^4-(2-(methylsulfonyl)phenyl)-N^6-(5-(1-(oxetan-3-ylamino)cyclopropyl)130yridine-2-yl)pyrimidine-4,6-diamine]	†† (††: 0.37-0.39)	0.1 to 1
Cc1cccc(Nc2cc(Nc3cnccc3C(N)=O)ncn2)n1 [Compound 61, 3-((6-((6-methylpyridin-2-yl)amino)pyrimidin-4-yl)amino) isonicotinamide]	††† (†††: >0.39)	0.1 to 1
Cc1cccnc1Nc1cc(Nc2ccccc2C(N)=O)ncn1 [Compound 68, 2-((6-((3-methylpyridin-2-yl)amino)pyrimidin-4-yl)amino) benzamide]	††† (†††: >0.39)	> 1
Cc1cccc(Nc2cc(Nc3ccccc3S(C)(=O)=O)nc(N)n2)n1 [Compound 57, N^4-(6-methylpyridin-2-yl)-N^6-(2-(methylsulfonyl)phenyl)pyrimidine-2,4,6-triamine]	††† (†††: >0.39)	
Cc1cccc(Nc2cc(Nc3ccccc3C(N)=O)nc(N)n2)n1 [Compound 55, 2-((2-amino-6-((6-methylpyridin-2-yl)amino)pyrimidin-4-yl)amino)benzamide]	†† (††: 0.37-0.39)	
CC(c1ccc(Nc2ncnc(Nc3ncccc3S(C)(=O)=O)c2F)nc1)N1CC2(COC2)C1 (centres unmarked) [Compound 75, N^4-(5-(1-(2-oxa-6-azaspiro[3.3]heptan-6-yl)ethyl)168yridine-2-yl)-5-fluoro-N^6-(3-(methylsulfonyl)168yridine-2-yl)pyrimidine-4,6-diamine]	† (†: <0.37)	
CC1(Nc2ccc(Nc3cc(Nc4ncccc4S(C)(=N)=O)ncn3)nc2)COC1 (centres unmarked) [Compound 73, N^4-(5-((3-methyloxetan-3-yl)amino)166yridine-2-yl)-N^6-(3-(S-methylsulfonimidoyl)166yridine-2-yl)pyrimidine-4,6-diamine]	††† (†††: >0.39)	
Cc1cccc(Nc2cc(Nc3ccccc3S(C)(=O)=O)nc(C)n2)n1 [Compound 56, 2-methyl-N^4-(6-methylpyridin-2-yl)-N^6-(2-(methylsulfonyl)phenyl) pyrimidine-4,6-diamine]	† (†: <0.37)	
